Experiments:
[1] = test system: pome fruit, specifically apples and pears; assay: Applicant's experiments on floral development in the year after treatment with acylcyclohexanedione growth regulators; assay type: in vivo
Excerpt: Thus, D. Sugar, D. C. Elfving and E. A. Mielke report in Acta Hort. […] In the most extreme case, no floral development at all takes place in the year after the treatment.

[2] = test system: pear trees; details: cited from earlier work
[3] = test system: 12-year-old pear trees cv. "Conference" on BA rootstock; assay: Flowering behavior in pears after treatment with prohexadione-calcium and ethephon (inflorescence count about one year after first application); assay type: in vivo
Description: 1. Flowering Behavior in Pears after Treatment with Prohexadione-calcium and Ethephon
12-year-old pear trees cv. “Conference” on BA rootstock at two different locations were treated first with prohexadione-calcium alone and secondly with a combination of prohexadione-calcium and ethephon. To this end, 4 groups of 5 trees each, which were uniformly distributed in an orchard, were sprayed with an active-ingredient-comprising spray mixture to run-off point (approx. 1000 l/ha). Three applications at intervals of approximately one month were carried out at the first location. At the second location, prohexadione-calcium was applied four times to a part of the groups of trees and three times to another part, the application interval being in each case approximately two weeks. The combination of prohexadione-calcium and ethephon was applied twice, with in each case one application with prohexadione-calcium alone being carried out before and after the combined application. Approximately one year after the first application, the number of inflorescences of untreated trees, of those which have been treated exclusively with prohexadione-calcium and of trees which had been treated with a combination of prohexadione-calcium and ethephon were counted and compared with each other.

| Compound | Floral development in the year after the treatment [1] | Subsequent flowering [2] | Flowering in the subsequent year, April 2003 ([3]; Location 1, ProCa alone 150 g/ha on 15th April, 14th May, 16th June 2002, total 450 g/ha, untreated 183) | Flowering in the subsequent year, April 2003 ([3]; Location 2, ProCa alone four applications 120/87/87/95 g/ha (12th April, 3rd, 15th, 30th May 2002), total 389 g/ha, untreated 250) | Flowering in the subsequent year, April 2003 ([3]; Location 2, ProCa alone three applications 120/87/87 g/ha (12th April, 3rd, 15th May 2002), total 294 g/ha, untreated 250) | Floral development in the year following the treatment (summary in words) ([3]; pear trees, Tables 1 and 2) |
| --- | --- | --- | --- | --- | --- | --- |
| CCOC(=O)C1CC(=O)C(=C(O)C2CC2)C(=O)C1 (centres unmarked) [trinexapac-ethyl] | markedly reduced floral development | – | – | – | – | – |
| prohexadione-calcium [ProCa] | markedly reduced floral development | reduced subsequent flowering | 137 number of inflorescences/tree | 157 number of inflorescences/tree | 152 number of inflorescences/tree | reduced floral development |
| O=C1CC(C(=O)O)CC(=O)C1=C(O)C1CC1 (centres unmarked) [trinexapac] | markedly reduced floral development | – | – | – | – | – |
